Test results published in patent US20240140941A1, “DERIVATIVE OF 2,5-DIKETOPIPERAZINE COMPOUND, AND PREPARATION METHOD THEREFOR, PHARMACEUTICAL COMPOSITION THEREOF AND USE THEREOF” (DALIAN WZ PROBIOTICS AD HEALTH CO., LTD, priority 2020, published 2024).
Like-named read-outs stand apart in the source and are kept apart here.

Assays:
[1] = test system: NCI-H460; assay: Inhibition test on cell proliferation (MTT), NCI-H460; assay type: cell-based, human; settings: Homo sapiens, NCI-H460, 72 h
Experimental: (§1) Tumor cells (NCI-H460, BxPC-3, HT-29, HCC-LM3) in the logarithmic growth phase were digested, centrifuged, and the supernatants were removed. Cells were resuspended by adding fresh culture medium, and counted using a cell counting plate. 100 μL of culture medium (containing cells) was added to a 96-well plate according to the standard of 2000 to 6000 cells per well and incubated in an incubator (37° C., 5% CO2) for 24 hours. After the cells were completely adhered to the wall, the test sample and Plinabulin were diluted to different concentrations using fresh culture medium, and 4 wells were set for each concentration. After 72 hours of drug treatment, the culture medium was removed, and 20 μL of MTT at a concentration of 5 mg/mL was added to each well. After 3-4 hours in the incubator, the MTT was discarded, and 100 μL of DMSO was added to each well, and placed in a 96-well plate shaker to completely dissolve the purple formazan. Subsequently, the absorbance (OD value) was detected at a wavelength of 490 nm using a microplate reader. The experiment also required setting up zero-setting wells (blank culture medium, MTT, DMSO). Cell inhibition rate=1−(OD value of drug-dosed group−OD value of zero-setting group)/(OD value of blank group−OD value of zero-setting group)×100%.

[2] = test system: BxPC-3; assay: Inhibition test on cell proliferation (MTT), BxPC-3; assay type: cell-based, human; settings: Homo sapiens, BXPC-3, 72 h, read-out: IC50 (nM) BxPC-3
Experimental: as §1

[3] = 72 hours of drug treatment, MTT, read-out: IC50 (nM) NCI-H460
[4] = 72 hours of drug treatment, MTT
[5] = read-out: IC50 (nM) NCI-H460, 72 hours of drug treatment, MTT

Row | IC50 [1, 3] [nM] | IC50 [2, 4] [nM] | SMILES | IC50 [1, 5] [nM] | IC50 [2] [nM]
1 | 9.33 ± 0.54 | 9.33 ± 0.45 | CC1CN(CCCn2cnc(/C=c3\[nH]c(=O)/c(=C/c4cccc(C(=O)c5ccc(F)cc5)c4)[nH]c3=O)c2C2CC2)CC(C)O1 (stereo not drawn) [PLN-2-14, (3Z,6Z)-3-(3-(p-fluorobenzoyl)phenyl)methylene-6-((5-cyclopropyl-1-((2,6-dimethyl)-3-morpholinyl)propylimidazol-4-yl)methylene)piperazine-2,5-dione] | – | –
2 | 147 ± 14.5 | 91.63 ± 0.62 | CC(C)c1c(/C=c2\[nH]c(=O)/c(=C/c3cc(F)ccc3F)[nH]c2=O)ncn1CCCN1CCNCC1 [PLN-2-20, (3Z,6Z)-3-(2,5-difluorophenyl)methylene-6-((5-isopropyl-1-(3-piperazinyl)propylimidazol-4-yl)methylene)piperazine-2,5-dione] | – | –
3 | 85.7 ± 10.6 | 66.2 ± 1.45 | CC(C)c1c(/C=c2\[nH]c(=O)/c(=C/c3cccc(Oc4ccc(F)cc4)c3)[nH]c2=O)ncn1CCCN1CCN(C)CC1 [PLN-2-22, (3Z,6Z)-3-(3-(p-fluorophenoxy)phenyl)methylene-6-((5-isopropyl-1-(3-N-methylpiperazinyl)propylimidazol-4-yl)methylene)piperazine-2,5-dione] | – | –
4 | 28.6 ± 1.4 | 13.19 ± 0.07 | CC(C)c1c(/C=c2\[nH]c(=O)/c(=C/c3cc(F)ccc3F)[nH]c2=O)ncn1CCCN1CCN(C)CC1 [PLN-2-24] | – | –
5 | 23.9 ± 4.76 | 17.9 ± 5.9 | CC(C)c1c(/C=c2\[nH]c(=O)/c(=C/c3cccc(C(=O)c4ccc(F)cc4)c3)[nH]c2=O)ncn1CCCN1CCN(Cc2ccc(B3OC(C)(C)C(C)(C)O3)cc2)CC1 [PLN-2-27, (3Z,6Z)-3-(3-(p-fluorobenzoyl)phenyl)methylene-6-((5-isopropyl-1-(3-N-(4-(4,4,5,5-tetramethyl-1,3,2-dioxaborolan-2-yl))benzylpiperazinyl)propylimidazol-4-yl)methylene)piperazine-2,5-dione] | – | –
6 | – | – | CC(C)c1c(/C=c2\[nH]c(=O)/c(=C/c3cccc(C(=O)c4ccc(F)cc4)c3)[nH]c2=O)ncn1CCCN1CCN(C(=O)OCc2ccc(B3OC(C)(C)C(C)(C)O3)cc2)CC1 [PLN-2-28, (3Z,6Z)-3-(3-(p-fluorobenzoyl)phenyl)methylene-6-((5-isopropyl-1-(3-N-p-(4,4,5,5-tetramethyl-1,3,2-dioxaborolan-2-yl)benzyloxycarbonylpiperazinyl)propylimidazol-4-yl)methylene)piperazine-2,5-dione] | 15.4 ± 1.68 | 9.22 ± 3.93
7 | 3.46 ± 0.25 | 1.4 ± 0.04 | CC(C)c1c(/C=c2\[nH]c(=O)/c(=C/c3cccc(C(=O)c4ccc(F)cc4)c3)[nH]c2=O)ncn1CCCN1CCN(C=O)CC1 [PLN-2-29, (3Z,6Z)-3-(3-(p-fluorobenzoyl)phenyl)methylene-6-((5-isopropyl-1-(3-N-formylpiperazinyl)propylimidazol-4-yl)methylene)piperazine-2,5-dione] | – | –
8 | 3.98 ± 0.33 | 2.3 ± 0.08 | CC(=O)N1CCN(CCCn2cnc(/C=c3\[nH]c(=O)/c(=C/c4cccc(C(=O)c5ccc(F)cc5)c4)[nH]c3=O)c2C(C)C)CC1 [PLN-2-30, (3Z,6Z)-3-(3-(p-fluorobenzoyl)phenyl)methylene-6-((5-isopropyl-1-(3-N-acetylpiperazinyl)propylimidazol-4-yl)methylene)piperazine-2,5-dione] | – | –
9 | 6.93 ± 0.96 | 2.48 ± 0.57 | CCC(=O)N1CCN(CCCn2cnc(/C=c3\[nH]c(=O)/c(=C/c4cccc(C(=O)c5ccc(F)cc5)c4)[nH]c3=O)c2C(C)C)CC1 [PLN-2-31, (3Z,6Z)-3-(3-(p-fluorobenzoyl)phenyl)methylene-6-((5-isopropyl-1-(3-N-propionylpiperazinyl)propylimidazol-4-yl)methylene)piperazine-2,5-dione] | – | –
10 | 7.95 ± 1.29 | 4.16 ± 0.78 | CC(C)C(=O)N1CCN(CCCn2cnc(/C=c3\[nH]c(=O)/c(=C/c4cccc(C(=O)c5ccc(F)cc5)c4)[nH]c3=O)c2C(C)C)CC1 [PLN-2-32, (3Z,6Z)-3-(3-(p-fluorobenzoyl)phenyl)methylene-6-((5-isopropyl-1-(3-N-isobutyrylpiperazinyl)propylimidazol-4-yl)methylene)piperazine-2,5-dione] | – | –
11 | – | – | CC(C)c1c(/C=c2\[nH]c(=O)/c(=C/c3cccc(C(=O)c4ccc(F)cc4)c3)[nH]c2=O)ncn1CCCN1CCN(C(=O)C(C)(C)C)CC1 [PLN-2-33, (3Z,6Z)-3-(3-(p-fluorobenzoyl)phenyl)methylene-6-((5-isopropyl-1-(3-N-tert-butyrylpiperazinyl)propylimidazol-4-yl)methylene)piperazine-2,5-dione] | 9.91 ± 2 | 6.39 ± 2.51
12 | 20.1 ± 3.67 | 17.5 ± 0.27 | CCC(CC)C(=O)N1CCN(CCCn2cnc(/C=c3\[nH]c(=O)/c(=C/c4cccc(C(=O)c5ccc(F)cc5)c4)[nH]c3=O)c2C(C)C)CC1 [PLN-2-34, (3Z,6Z)-3-(3-(p-fluorobenzoyl)phenyl)methylene-6-((5-isopropyl-1-(3-N-(2-ethylbutyryl)piperazinyl)propylimidazol-4-yl)methylene)piperazine-2,5-dione] | – | –
13 | 5.28 ± 0.71 | 2.23 ± 2.2 | CC(C)c1c(/C=c2\[nH]c(=O)/c(=C/c3cccc(C(=O)c4ccc(F)cc4)c3)[nH]c2=O)ncn1CCCN1CCN(C(=O)C2CC2)CC1 [PLN-2-35, (3Z,6Z)-3-(3-(p-fluorobenzoyl)phenyl)methylene-6-((5-isopropyl-1-(3-N-cyclopropanecarbonylpiperazinyl)propylimidazol-4-yl)methylene)piperazine-2,5-dione] | – | –
14 | – | – | CC(C)c1c(/C=c2\[nH]c(=O)/c(=C/c3cccc(C(=O)c4ccc(F)cc4)c3)[nH]c2=O)ncn1CCCN1CCN(C(=O)C2CCCC2)CC1 [PLN-2-37, (3Z,6Z)-3-(3-(p-fluorobenzoyl)phenyl)methylene-6-((5-isopropyl-1-(3-N-cyclopentnecarbonylpiperazinyl)propylimidazol-4-yl)methylene)piperazine-2,5-dione] | 7.86 ± 1.37 | 6.23 ± 0.15
15 | 7.56 ± 0.33 | 4.4 ± 3.1 | CC(C)=CC(=O)N1CCN(CCCn2cnc(/C=c3\[nH]c(=O)/c(=C/c4cccc(C(=O)c5ccc(F)cc5)c4)[nH]c3=O)c2C(C)C)CC1 [PLN-2-40, (3Z,6Z)-3-(3-(p-fluorobenzoyl)phenyl)methylene-6-((5-isopropyl-1-(3-N-(3,3-dimethyl)acryloylpiperazinyl)propylimidazol-4-yl)methylene)piperazine-2,5-dione] | – | –
16 | 5.55 ± 1.68 | 3.25 ± 2.13 | CC(C)c1c(/C=c2\[nH]c(=O)/c(=C/c3cccc(C(=O)c4ccc(F)cc4)c3)[nH]c2=O)ncn1CCCN1CCN(C(=O)c2ccccc2)CC1 [PLN-2-41, (3Z,6Z)-3-(3-(p-fluorobenzoyl)phenyl)methylene-6-((5-isopropyl-1-(3-N-benzoylpiperazinyl)propylimidazol-4-yl)methylene)piperazine-2,5-dione] | – | –
17 | – | – | CC(C)c1c(/C=c2\[nH]c(=O)/c(=C/c3cccc(C(=O)c4ccc(F)cc4)c3)[nH]c2=O)ncn1CCCN1CCN(S(C)(=O)=O)CC1 [PLN-2-42, (3Z,6Z)-3-(3-(p-fluorobenzoyl)phenyl)methylene-6-((5-isopropyl-1-(3-N-methylsulfonylpiperazinyl)propylimidazol-4-yl)methylene)piperazine-2,5-dione] | 6.59 ± 1.29 | 3.38 ± 0.53
18 | 8.68 ± 0.78 | 3.84 ± 0.12 | CC(C)NC(=O)N1CCN(CCCn2cnc(/C=c3\[nH]c(=O)/c(=C/c4cccc(C(=O)c5ccc(F)cc5)c4)[nH]c3=O)c2C(C)C)CC1 [PLN-2-44, (3Z,6Z)-3-(3-(p-fluorobenzoyl)phenyl)methylene-6-((5-isopropyl-1-(3-N-isopropylaminocarbonylpiperazinyl)propylimidazol-4-yl)methylene)piperazine-2,5-dione] | – | –
19 | 6.43 ± 1.98 | 1.79 ± 0.49 | CC(C)c1c(/C=c2\[nH]c(=O)/c(=C/c3cccc(C(=O)c4ccc(F)cc4)c3)[nH]c2=O)ncn1CCCN1CCN(C(=O)NC(C)(C)C)CC1 [PLN-2-45, (3Z,6Z)-3-(3-(p-Fluorobenzoyl)phenyl)methylene-6-((5-isopropyl-1-(3-N-tert-butylaminocarbonylpiperazinyl)propylimidazol-4-yl)methylene)piperazine-2,5-dione] | – | –

Row | SMILES | IC50 [1, 3] [nM] | IC50 [2, 4] [nM] | IC50 [1, 5] [nM] | IC50 [2] [nM]
20 | CC(C)c1c(/C=c2\[nH]c(=O)/c(=C/c3cccc(C(=O)c4ccc(F)cc4)c3)[nH]c2=O)ncn1CCCN1CCN(C(=O)OC(C)(C)C)CC1 [PLN-2-15, (3Z,6Z)-3-(3-(p-fluorobenzoyl)phenyl)methylene-6-((5-isopropyl-1-(3-N-tert-butoxycarbonylpiperazinyl)propylimidazol-4-yl)methylene)piperazine-2,5-dione] | 8.01 ± 1.24 | 6.77 ± 0.08 | – | –
21 | CC(C)c1c(/C=c2\[nH]c(=O)/c(=C/c3cccc(Oc4ccc(F)cc4)c3)[nH]c2=O)ncn1CCCN1CCN(C(=O)OC(C)(C)C)CC1 [PLN-2-17, (3Z,6Z)-3-(3-(4-Fluorophenoxy)phenyl)methylene-6-((5-isopropyl-1-(3-N-tert-butoxycarbonylpiperazinyl)propylimidazol-4-yl)methylene)piperazine-2,5-dione] | 41.8 ± 2.27 | 21.1 ± 2.41 | – | –
